Holding throughout (assay): relative viability (nuclei count vs DMSO), 5 days (fraction); higher = more cells survive
Compound in the experiment “Seliciclib + Lapatinib”: CC[C@H](CO)Nc1nc(NCc2ccccc2)c2ncn(C(C)C)c2n1 [Seliciclib] + CS(=O)(=O)CCNCc1ccc(-c2ccc3ncnc(Nc4ccc(OCc5cccc(F)c5)c(Cl)c4)c3c2)o1 [Lapatinib] (partner 2 µM)
Summed up:
(§1)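 Lung cancer cell lines, seeded in 1536-well plates, were treated the following day by pin tool with a single drug or with five library-drug doses (not always all listed) in √10 steps on top of a fixed anchor-drug dose. Cells were fixed and nuclei stained in one step after 5 days, and nuclei were counted. Relative viability is the nuclei count for treated wells divided by that for vehicle wells, reported as medians of duplicate plates.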

Compound in the experiment “Seliciclib + Luminespib”: CC[C@H](CO)Nc1nc(NCc2ccccc2)c2ncn(C(C)C)c2n1 [Seliciclib] + CCNC(=O)c1noc(-c2cc(C(C)C)c(O)cc2O)c1-c1ccc(CN2CCOCC2)cc1 [Luminespib] (partner 0.01 µM)
Summed up: as §1

Compound in the experiment “Seliciclib + Olaparib”: CC[C@H](CO)Nc1nc(NCc2ccccc2)c2ncn(C(C)C)c2n1 [Seliciclib] + O=C(c1cc(Cc2n[nH]c(=O)c3ccccc23)ccc1F)N1CCN(C(=O)C2CC2)CC1 [Olaparib] (partner 8 µM)
In a few lines: as §1

Compound in the experiment “Seliciclib + Decitabine”: CC[C@H](CO)Nc1nc(NCc2ccccc2)c2ncn(C(C)C)c2n1 [Seliciclib] + Nc1ncn([C@H]2C[C@H](O)[C@@H](CO)O2)c(=O)n1 [Decitabine] (partner 2 µM)
Summed up:
as §1

On to EMC-BAC-2, for which the relative viability came out at 0.891 in the experiment with Seliciclib + Lapatinib (first compound 0.08 µM); 0.847 in the experiment with Seliciclib + Lapatinib (first compound 0.253 µM); 0.953 in the experiment with Seliciclib + Lapatinib (first compound 0.8 µM); 0.666 in the experiment with Seliciclib + Lapatinib (first compound 2.53 µM); 0.781 with Seliciclib + Lapatinib (first compound 8 µM); 1.15 in the experiment with Seliciclib + Luminespib (first compound 0.08 µM). Besides, the relative viability with Seliciclib + Luminespib (first compound 0.253 µM) turned out to be 1.02; with Seliciclib + Luminespib (first compound 0.8 µM), 1.15; with Seliciclib + Luminespib (first compound 2.53 µM), 1.16; with Seliciclib + Luminespib (first compound 8 µM), 1.11; in the experiment with Seliciclib + Olaparib (first compound 0.08 µM), 0.493; in the experiment with Seliciclib + Olaparib (first compound 0.253 µM), 0.494. In addition, the relative viability in the experiment with Seliciclib + Olaparib (first compound 0.8 µM) was found to be 0.59; in the experiment with Seliciclib + Olaparib (first compound 2.53 µM), 0.447; in the experiment with Seliciclib + Olaparib (first compound 8 µM), 0.446; in the experiment with Seliciclib + Decitabine (first compound 0.08 µM) it was 0.918; with Seliciclib + Decitabine (first compound 0.253 µM), 1.01; with Seliciclib + Decitabine (first compound 0.8 µM) it was 1. The relative viability was 0.753 with Seliciclib + Decitabine (first compound 2.53 µM) and 0.856 in the experiment with Seliciclib + Decitabine (first compound 8 µM).

Regarding NCI-H1650, the relative viability in the experiment with Seliciclib + Lapatinib (first compound 0.08 µM) amounted to 0.769; with Seliciclib + Lapatinib (first compound 0.253 µM), 0.889; in the experiment with Seliciclib + Lapatinib (first compound 0.8 µM) it was 0.725; in the experiment with Seliciclib + Lapatinib (first compound 2.53 µM) it was 0.621; in the experiment with Seliciclib + Lapatinib (first compound 8 µM), 0.347; in the experiment with Seliciclib + Luminespib (first compound 0.08 µM), 0.195. Further, the relative viability with Seliciclib + Luminespib (first compound 0.253 µM) turned out to be 0.185; in the experiment with Seliciclib + Luminespib (first compound 0.8 µM) it was 0.216; with Seliciclib + Luminespib (first compound 2.53 µM), 0.199; with Seliciclib + Luminespib (first compound 8 µM), 0.193; in the experiment with Seliciclib + Olaparib (first compound 0.08 µM), 0.576; in the experiment with Seliciclib + Olaparib (first compound 0.253 µM), 0.804. Further, the relative viability stood at 0.754 with Seliciclib + Olaparib (first compound 0.8 µM); 0.666 with Seliciclib + Olaparib (first compound 2.53 µM); 0.756 with Seliciclib + Olaparib (first compound 8 µM); 0.439 with Seliciclib + Decitabine (first compound 0.08 µM); 0.278 in the experiment with Seliciclib + Decitabine (first compound 0.253 µM); 0.437 with Seliciclib + Decitabine (first compound 0.8 µM). Also, the relative viability with Seliciclib + Decitabine (first compound 2.53 µM) amounted to 0.403; with Seliciclib + Decitabine (first compound 8 µM) it was 0.52.

On to NCI-H596, for which the relative viability with Seliciclib + Lapatinib (first compound 0.08 µM) came to 0.969; with Seliciclib + Lapatinib (first compound 0.253 µM), 0.831; with Seliciclib + Lapatinib (first compound 0.8 µM), 1.1; in the experiment with Seliciclib + Lapatinib (first compound 2.53 µM), 1.21; in the experiment with Seliciclib + Lapatinib (first compound 8 µM), 0.939; with Seliciclib + Luminespib (first compound 0.08 µM) it was 0.802. In addition, the relative viability with Seliciclib + Luminespib (first compound 0.8 µM) came out at 1; with Seliciclib + Luminespib (first compound 2.53 µM), 0.84; with Seliciclib + Luminespib (first compound 8 µM), 0.745; with Seliciclib + Olaparib (first compound 0.08 µM), 0.724; with Seliciclib + Olaparib (first compound 0.8 µM), 0.695; in the experiment with Seliciclib + Olaparib (first compound 2.53 µM), 0.781. In addition, the relative viability came out at 0.764 with Seliciclib + Olaparib (first compound 8 µM); 0.951 with Seliciclib + Decitabine (first compound 0.08 µM); 0.961 with Seliciclib + Decitabine (first compound 0.8 µM); 1.03 with Seliciclib + Decitabine (first compound 2.53 µM); 0.828 with Seliciclib + Decitabine (first compound 8 µM).

With LCLC-97TM1, the relative viability with Seliciclib + Lapatinib (first compound 0.08 µM) was 1.12; with Seliciclib + Lapatinib (first compound 0.253 µM), 1.71; with Seliciclib + Lapatinib (first compound 0.8 µM), 1.36; with Seliciclib + Lapatinib (first compound 8 µM), 0.364; with Seliciclib + Luminespib (first compound 0.08 µM), 0.843; in the experiment with Seliciclib + Luminespib (first compound 0.253 µM), 0.81. Also, the relative viability was 0.449 with Seliciclib + Luminespib (first compound 0.8 µM); 0.684 with Seliciclib + Luminespib (first compound 2.53 µM); 0.469 in the experiment with Seliciclib + Luminespib (first compound 8 µM); 0.453 with Seliciclib + Olaparib (first compound 0.08 µM); 0.47 with Seliciclib + Olaparib (first compound 0.253 µM); 0.322 in the experiment with Seliciclib + Olaparib (first compound 0.8 µM). For the same cell line, the relative viability with Seliciclib + Olaparib (first compound 2.53 µM) came to 0.381; with Seliciclib + Olaparib (first compound 8 µM) it was 0.265; with Seliciclib + Decitabine (first compound 0.08 µM), 0.237; with Seliciclib + Decitabine (first compound 0.253 µM) it was 0.187; in the experiment with Seliciclib + Decitabine (first compound 0.8 µM), 0.189; in the experiment with Seliciclib + Decitabine (first compound 2.53 µM), 0.231. The relative viability in the experiment with Seliciclib + Decitabine (first compound 8 µM) is 0.201.

As to H3255, the relative viability with Seliciclib + Lapatinib (first compound 0.08 µM) is 0.265; with Seliciclib + Lapatinib (first compound 0.253 µM) it was 0.273; in the experiment with Seliciclib + Lapatinib (first compound 0.8 µM), 0.256; with Seliciclib + Lapatinib (first compound 2.53 µM) it was 0.174; in the experiment with Seliciclib + Lapatinib (first compound 8 µM) it was 0.242; with Seliciclib + Luminespib (first compound 0.08 µM), 0.868. In addition, the relative viability with Seliciclib + Luminespib (first compound 0.253 µM) was 1.05; in the experiment with Seliciclib + Luminespib (first compound 0.8 µM), 0.94; with Seliciclib + Luminespib (first compound 2.53 µM) it was 0.833; in the experiment with Seliciclib + Luminespib (first compound 8 µM), 0.917; with Seliciclib + Olaparib (first compound 0.08 µM), 0.545; with Seliciclib + Olaparib (first compound 0.253 µM), 0.575. For the same cell line, the relative viability amounted to 0.552 with Seliciclib + Olaparib (first compound 0.8 µM); 0.518 with Seliciclib + Olaparib (first compound 2.53 µM); 0.518 with Seliciclib + Olaparib (first compound 8 µM); 0.594 in the experiment with Seliciclib + Decitabine (first compound 0.08 µM); 0.61 with Seliciclib + Decitabine (first compound 0.253 µM); 0.684 with Seliciclib + Decitabine (first compound 0.8 µM). The figures for the relative viability with Seliciclib + Decitabine (first compound 2.53 µM) and with Seliciclib + Decitabine (first compound 8 µM) were 0.571 and 0.479, respectively.

(Values after the supplement of paper PMC10307832.)
